Experimental findings from patent US11034839B2, “Compounds, linked with haptens, for the detection of senescent cells” (THE UNIVERSITY OF MANCHESTER, priority 2016, dated 2021) are described below.

The subject of one assay is senescent cells. The assay can be described thus: Flow cytometry analysis for detection of senescent cells in cell culture. The format is cell-based. The settings on record: HIC assay adapted to flow cytometry, FIG. 10. Here is the method:
In inventive example 7 the derivative LG13 was used to detect lipofuscin rich cells in cell aspirations or cell cultures by flow cytometry analysis.
• 1. Cells harvested from culture are fixed in EtOH 70% at 4° C. • 2. Centrifuge at 1200 rpm for 5 min at RT. • 3. Wash ×1 in 5 ml PBS at RT. • 4. Centrifuge at 1200 rpm for 5 min at RT. • 5. Incubate in 0.1% Triton X/PBS for 15 min at RT. • 6. Centrifuge at 1200 rpm for 5 min at RT. • 7. Wash ×1 EtOH 50% for 5 min at RT • 8. Centrifuge at 1200 rpm for 5 min at RT. • 9. Wash ×1 EtOH 70% for 5 min at RT. • 10. Centrifuge at 1200 rpm for 5 min at RT. • 11. Cover cell pellet with compound LG13 and incubate for 8 min at RT. • 12. Centrifuge at 1200 rpm for 5 min at RT. • 13. Wash with EtOH 50% and centrifuge at 1200 rpm for 5 min at RT, repeat ×3. • 14. Wash ×1 in PBS. • 15. Centrifuge at 1200 rpm for 5 min at RT. • 16. Incubate with the primary anti-biotin antibody diluted 1:400 in PBS ([Hyb-8] ab201341, Abcam) for 60 min at 37° C. • 17. Wash ×1 with PBS. • 18. Centrifuge at 1200 rpm for 5 min at RT. • 19. Incubate with secondary antibody, goat anti-mouse 568 Alexa Fluor conjugated, diluted 1:100 in PBS [Thermo Fisher Scientific (Cat no: A-11004)] for 20-30 min in dark and on ice. • 20. Wash ×1 with PBS. • 21. Centrifuge at 1200 rpm for 5 min at RT.
(In flow cytometry, cells or beads pass a laser one at a time.)

In assay [1] the test system is senescent cells in U2OS hCdt1 Tet-ON cell line, palbociclib-induced human melanoma xenograft mouse model, irradiated human breast tissue. Put plainly: Hybrid histo-/immunochemical assay (HIC) compared with SBB histochemical stain (HC). Here is the method:
• 1. Compound (LG13) • 2. 100% ethanol (100% EtOH) • 3. Parafilm • 4. Fritted glass filter of medium porosity • 5. Airtight Dye Container 2.2.2 General Procedure: • 1. Dissolve 40 mg of the compound (LG13) in 7.4 ml 100% EtOH in a glass beaker and cover it with parafilm. • 2. Incubate at 56° C. in a waterbath for 120 min until the compound is completely dissolved. 2.3. General Method for Compound (LG13) Staining 2.3.1 Materials: • 1. Xylene • 2. […] Syringe • 4. 13 mm filter, membrane 0.22 μm • 5. Soft paper (dry or dipped in ethanol) • 6. Anti-biotin antibody ([Hyb-8] ab201341, Abcam) • 7. Ultravision Quanto Detection System HRP DAB kit (Cat no: TL-125-QHD) • 8. Glycerol (Sigma-Aldrich) • 9. Tris Buffered Saline (TBS; 10×): 1.5 M NaCl, 0.1 M Tris-HCl, pH 7.4. Store at 4° C. • 10. 0.5% Triton X/TBS: 0.5 ml Triton X diluted in 99.5 ml TBS • 11. Mounting media Glycergel (DakoCytomation). • 12. Light Microscope • 13. Anti-p21^WAF1/Cip1 mouse primary antibody [(F-5)(sc-6246) Santa-Cruz] • 14. […] Fluorescence microscope 2.3.2 General Procedures: 2.3.2.1 General Staining Protocol for Cells Mounted on Coverslips • 1. […] The staining reaction is monitored under the light microscope until detection of the signal (average time 5-8 min). • 8. […] The staining reaction is monitored under the light microscope until detection of the dark brown signal (average time 30 sec-1 min) at RT 1. • 20. […]

Structures are written as SMILES.

As for `CC1(COC(=O)CCCC[C@H]2SC[C@H]3NC(=O)N[C@H]32)Nc2cccc3c(/N=N/c4ccc(/N=N/c5ccccc5)c5ccccc45)ccc(c23)N1` (stereo partly drawn) [LG13, (2-methyl-6-((E)-(4-((E)-phenyldiazenyl)naphthalen-1-yl)diazenyl)-2,3-dihydro-1H-perimidin-2-yl)methyl 5-((3aR,4R,6aS)-2-oxohexahydro-1H-thieno[3,4-d]imidazol-4-yl)pentanoate], the “detection of senescent cells by flow cytometry” value in the assay on senescent cells was “detects robustly senescent cells”. Further, the “IHC staining relative to SBB HC staining” value in assay [1] (U2OS hCdt1 Tet-ON, palbociclib melanoma xenograft, irradiated human breast tissue, FIG. 14 ai, bi, ci) was “superiority”. For the same compound, in assay [1] (additional cellular systems, mouse models, human clinical samples, FIG. 14 aii, bii, cii), the “senescence detection using the HIC assay” value was “sensitive senescence detection”.
